Measurements as given in patent US5126368A, “Octenoic acid derivatives useful as thromboxane A2 inhibitors” (Imperial Chemical Industries plc, priority 1985, dated 1992).

Columns and labels:
[1] = system: rabbit aortal strip; assay: Test (a): rabbit aortal strip model (Piper and Vane); assay type: cell-based; conditions: agonist TXA2 or U46619
Method: (§1) As stated earlier, the compound of formula I is an antagonist of one or more of the actions of TXA2, for example certain of its actions on blood platelets, the vasculature and/or the lung.
(a) The rabbit aortal strip model devised by Piper and Vane (Nature, 1969, 223, 29-35) using as agonist a freshly prepared sample of TXA2, generated by addition of arachidonic acid (25 μg) to citrated, platelet rich rabbit plasma (250 μl) and allowing the mixture to aggregate fully over 90 seconds before use; alternatively the TXA2 mimetic agent known as U46619 (described by R.L. Jones et alia in "Chemistry, Biochemistry and Pharmacological Activity of Prostanoids" edited by S.M. Roberts and F. Scheinmann, at page 211; Pergamon Press, 1979) may be used as the agonist;

[2] = molecular target: T1, human, citrated, platelet-rich plasma (Homo sapiens, UniProt P21731); assay: Test (b): U46619-induced aggregation of human citrated platelet-rich plasma (Born); assay type: cell-based; conditions: agonist U46619, averaged over several concentrations
T1 construct: aggregating human, citrated, platelet-rich plasma; endogenous in cells; host or cells: human platelets in citrated platelet-rich plasma
T1 sequence (P21731 1-343): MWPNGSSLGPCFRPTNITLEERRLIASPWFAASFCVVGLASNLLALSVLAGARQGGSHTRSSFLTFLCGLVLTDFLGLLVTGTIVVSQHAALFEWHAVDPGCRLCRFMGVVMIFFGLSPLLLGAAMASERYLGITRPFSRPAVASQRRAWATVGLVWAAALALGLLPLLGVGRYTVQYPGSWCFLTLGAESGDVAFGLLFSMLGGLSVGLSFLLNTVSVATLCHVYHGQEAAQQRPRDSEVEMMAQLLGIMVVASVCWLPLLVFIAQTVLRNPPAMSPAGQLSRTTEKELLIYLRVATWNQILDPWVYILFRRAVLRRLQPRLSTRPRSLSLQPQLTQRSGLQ
Source text: as §1
(b) a blood platelet aggregation test based on that described by Born (Nature, 1962, 194, 927-929) and involving:
(i) aggregating human, citrated, platelet-rich plasma by addition of the TXA2 mimetic agent U46619 so that a dose-response curve is generated;
(ii) generating a dose-response curve for U46619 stimulated platelet aggregation in the presence of increasing amounts of test compound (generally in the range 10^-5 M to 10^-10 M); and
(iii) calculating a KB value indicating potency of TXA2 antagonism for the test compound, averaged over several concentrations, from the calculated 50% response value for U46619 aggregation in the presence and absence of test compound; and […]

[3] = system: U46619 induced bronchoconstriction; assay: Test (c): U46619-induced bronchoconstriction, Konzett-Rossler anaesthetised guinea-pig model; assay type: in vivo; conditions: 2 hours after oral dosing at 0.05 mg/kg, U46619 i.v.
Source text: (c) a bronchoconstriction test involving measuring the inhibition by a test compound of the bronchoconstriction induced in the Konzett-Rossler, anaesthetised guinea-pig model (as modified by Collier and James, Brit. J. Pharmacol., 1967, 30, 283-307) by intravenous administration of the TXA2 mimetic agent, U46619 and involving:
(i) obtaining a cumulative dose-response curve to U46619 induced bronchoconstriction by intravenous administration of constant volumes of increasing concentrations of U46619 (0.2-4 μg/kg) in physiological saline solution and expressing bronchoconstriction as the maximum of that theoretically obtainable with no air flow to the test animal;
(ii) generating a cumulative dose-response curve to U46619 induced bronchoconstriction at 30 minute intervals for 3 hours after oral dosing of test compound; and
(iii) calculating a dose-ratio for the test compound (that is the ratio of concentration of U46619 required to cause 50% bronchoconstriction in the presence and absence of test compound) indicating the potency of TXA2 antagonism.

[4] = system: U46619 induced hypertension; assay: Test (d): U46619-induced hypertension in anaesthetised rats; assay type: in vivo, rat (Alderley Park strain); conditions: 1 hour after an oral dose of 5 mg/kg
Method: (d) Male rats (Alderley Park strain) are anaesthetised with sodium pentobarbital and blood pressure is monitored at the carotid artery. The TXA2 mimetic agent U46619 is administered intravenously at 5 μg/kg via the jugular vein to produce a 20-30 mm Hg ([…]) increase in systolic pressure. The procedure is repeated twice to establish reproducibility of the effect. A test compound is then administered either intravenously (via the jugular vein) or orally (via a cannula) directly into the stomach and the animal is challenged with U46619, five minutes after dosing with test compound and then successively every ten minutes until the hypertensive effect of U46619 is no longer blocked.

Kb [2] | Structure (SMILES) | pA2 [1] | dose ratio [3] | inhibition of U46619 induced hypertension [4]
3.35 µM | O=C(O)CCCC/C=C\C[C@@H]1CO[C@H](C(F)(F)F)O[C@@H]1c1ccccc1O (relative stereo) [compound of formula I, 6(Z)-8-([2,4,5-cis]-4-o-hydroxyphenyl-2-trifluoromethyl-1,3-dioxan-5-yl)octenoic acid] | 7.75±0.05 | > 60 | > 70%
 | O=C(O)CCC/C=C\C[C@@H]1CO[C@H](C(F)(F)F)O[C@@H]1c1ccccc1 (relative stereo) [5(Z)-7-([2,4,5-cis]-4-phenyl-2-trifluoromethyl-1,3-dioxan-5-yl)heptenoic acid, reference compound] | 6.52±0.02 |  | 
